According to patent publication US8741944B2, “Anti-infective agents against intracellular pathogens” (priority 2007, dated 2014):
Like-named read-outs stand apart in the source and are kept apart here.

Experiments:
HS 578T (Breast Cancer) = assay: NCI DTP tumor cell line screen (SRB), HS 578T
Method: (§1) For a typical screening experiment, cells are inoculated into 96 well microtiter plates in 100 μL at plating densities ranging from 5,000 to 40,000 cells/well depending on the doubling time of individual cell lines. After cell inoculation, the microtiter plates are incubated at 37° C., 5% CO2, 95% air and 100% relative humidity for 24 h prior to addition of experimental drugs.
(§2) After 24 h, two plates of each cell line are fixed in situ with TCA, to represent a measurement of the cell population for each cell line at the time of drug addition (Tz). Experimental drugs are solubilized in dimethyl sulfoxide at 400-fold the desired final maximum test concentration and stored frozen prior to use. At the time of drug addition, an aliquot of frozen concentrate is thawed and diluted to twice the desired final maximum test concentration with complete medium containing 50 μg/ml gentamicin. Additional four, 10-fold or ½ log serial dilutions are made to provide a total of five drug concentrations plus control. Aliquots of 100 μl of these different drug dilutions are added to the appropriate microtiter wells already containing 100 μl of medium, resulting in the required final drug concentrations.
(§3) Following drug addition, the plates are incubated for an additional 48 h at 37° C., 5% CO2, 95% air, and 100% relative humidity. For adherent cells, the assay is terminated by the addition of cold TCA. Cells are fixed in situ by the gentle addition of 50 μl of cold 50% (w/v) TCA (final concentration, 10% TCA) and incubated for 60 minutes at 4° C. The supernatant is discarded, and the plates are washed five times with tap water and air dried. Sulforhodamine B (SRB) solution (1001) at 0.4% (w/v) in 1% acetic acid is added to each well, and plates are incubated for 10 minutes at room temperature. After staining, unbound dye is removed by washing five times with 1% acetic acid and the plates are air dried. Bound stain is subsequently solubilized with 10 mM trizma base, and the absorbance is read on an automated plate reader at a wavelength of 515 nm. For suspension cells, the methodology is the same except that the assay is terminated by fixing settled cells at the bottom of the wells by gently adding 50 μl of 80% TCA (final concentration, 16% TCA). Using the seven absorbance measurements [time zero, (Tz), control growth, (C), and test growth in the presence of drug at the five concentration levels (Ti)], the percentage growth is calculated at each of the drug concentrations levels. Percentage growth inhibition is calculated as: [(Ti−Tz)/(C−Tz)]×100 for concentrations for which Ti>/=Tz [(Ti−Tz)/Tz]×100 for concentrations for which Ti<Tz
(§4) Three dose response parameters are calculated for each experimental agent. […] The drug concentration resulting in total growth inhibition (TGI) is calculated from Ti=Tz. […] Values are calculated for each of these three parameters if the level of activity is reached; however, if the effect is not reached or is exceeded, the value for that parameter is expressed as greater or less than the maximum or minimum concentration tested.

OVCAR-4 (Ovarian Cancer) = assay: NCI DTP tumor cell line screen (SRB), OVCAR-4
Method: as §1, §2, §3, §4

[1] = test system: NCI/ADR-RES (Breast Cancer)
Method: as §1, §2, §3, §4

SK-MEL-5 (Melanoma) = assay: NCI DTP tumor cell line screen (SRB), SK-MEL-5
Method: as §1, §2, §3, §4

HCT-15 (Colon Cancer) = assay: NCI DTP tumor cell line screen (SRB), HCT-15
Method: as §1, §2, §3, §4

ACHN (Renal Cancer) = assay: NCI DTP tumor cell line screen (SRB), ACHN
Method: as §1, §2, §3, §4

[2] = test system: HOP-92 (Non-Small Cell Lung Cancer); assay: NCI DTP tumor cell line screen (SRB), HOP-92
Method: as §1, §2, §3, §4

DU-145 (Prostate Cancer) = assay: NCI DTP tumor cell line screen (SRB), DU-145
Method: as §1, §2, §3, §4

[3] = test system: NCI-H23 (Non-Small Cell Lung Cancer)
Method: as §1, §2, §3, §4

[4] = test system: EKVX (Non-Small Cell Lung Cancer); assay: NCI DTP tumor cell line screen (SRB), EKVX
Method: as §1, §2, §3, §4

KM12 (Colon Cancer) = assay: NCI DTP tumor cell line screen (SRB), KM12
Method: as §1, §2, §3, §4

K-562 (Leukemia) = assay: NCI DTP tumor cell line screen (SRB), K-562
Method: as §1, §2, §3, §4

HCT-116 (Colon Cancer) = assay: NCI DTP tumor cell line screen (SRB), HCT-116
Method: as §1, §2, §3, §4

MOLT-4 (Leukemia) = assay: NCI DTP tumor cell line screen (SRB), MOLT-4
Method: as §1, §2, §3, §4

[5] = test system: MDA-MB-231/ATCC (Breast Cancer); assay: NCI DTP tumor cell line screen (SRB), MDA-MB-231/ATCC
Method: as §1, §2, §3, §4

[6] = test system: NCI-H460 (Non-Small Cell Lung Cancer)
Method: as §1, §2, §3, §4

4-[5-(2-Phenanthrenyl)-3-(trifluoromethyl)-1H-pyrazol-1-yl]-phenyl -guanidine [Compound 71]
GI50 (HS 578T (Breast Cancer)): 1860 nM
TGI (HS 578T (Breast Cancer)): 3.78E−06
Percent Growth (HS 578T (Breast Cancer); Log10 Concentration −4.0): −38%
Percent Growth (HS 578T (Breast Cancer); Log10 Concentration −5.0): −69%
Percent Growth (HS 578T (Breast Cancer); Log10 Concentration −6.0): 94%
Percent Growth (HS 578T (Breast Cancer); Log10 Concentration −7.0): 100%
GI50 (OVCAR-4 (Ovarian Cancer)): 1310 nM
TGI (OVCAR-4 (Ovarian Cancer)): 2.58E−06
Percent Growth (OVCAR-4 (Ovarian Cancer); Log10 Concentration −4.0): −66%
Percent Growth (OVCAR-4 (Ovarian Cancer); Log10 Concentration −5.0): −100%
Percent Growth (OVCAR-4 (Ovarian Cancer); Log10 Concentration −6.0): 70%
Percent Growth (OVCAR-4 (Ovarian Cancer); Log10 Concentration −7.0): 79%
GI50 [1]: 2640 nM
TGI [1]: 7.73E−06
Percent Growth ([1]; Log10 Concentration −4.0): −47%
Percent Growth ([1]; Log10 Concentration −6.0): 95%
Percent Growth ([1]; Log10 Concentration −8.0): 98%
GI50 (SK-MEL-5 (Melanoma)): 2220 nM
TGI (SK-MEL-5 (Melanoma)): 4.07E−06
Percent Growth (SK-MEL-5 (Melanoma); Log10 Concentration −4.0): −34%
Percent Growth (SK-MEL-5 (Melanoma); Log10 Concentration −6.0): 116%
Percent Growth (SK-MEL-5 (Melanoma); Log10 Concentration −7.0): 111%
Percent Growth (SK-MEL-5 (Melanoma); Log10 Concentration −8.0): 97%
GI50 (HCT-15 (Colon Cancer); HCT-15): 1540 nM
TGI (HCT-15 (Colon Cancer); HCT-15): 2.87E−06
Percent Growth (HCT-15 (Colon Cancer); HCT-15, Log10 Concentration −4.0): −71%
Percent Growth (HCT-15 (Colon Cancer); HCT-15, Log10 Concentration −5.0): −100%
Percent Growth (HCT-15 (Colon Cancer); HCT-15, Log10 Concentration −8.0): 64%
GI50 (ACHN (Renal Cancer)): 1670 nM
TGI (ACHN (Renal Cancer)): 3.15E−06
Percent Growth (ACHN (Renal Cancer); Log10 Concentration −4.0): −22%
Percent Growth (ACHN (Renal Cancer); Log10 Concentration −5.0): −91%
Percent Growth (ACHN (Renal Cancer); Log10 Concentration −6.0): 90%
Percent Growth (ACHN (Renal Cancer); Log10 Concentration −8.0): 80%
GI50 [2]: 1010 nM
TGI [2]: 2.26E−06
Percent Growth ([2]; Log10 Concentration −4.0): −28%
Percent Growth ([2]; Log10 Concentration −5.0): −92%
Percent Growth ([2]; Log10 Concentration −6.0): 50%
Percent Growth ([2]; Log10 Concentration −7.0): 82%
GI50 (DU-145 (Prostate Cancer)): 1550 nM
TGI (DU-145 (Prostate Cancer)): 2.89E−06
Percent Growth (DU-145 (Prostate Cancer); Log10 Concentration −4.0): −100%
Percent Growth (DU-145 (Prostate Cancer); Log10 Concentration −5.0): −100%
Percent Growth (DU-145 (Prostate Cancer); Log10 Concentration −6.0): 85%
Percent Growth (DU-145 (Prostate Cancer); Log10 Concentration −8.0): 72%
GI50 [3]: 1790 nM
TGI [3]: 3.18E−06
Percent Growth ([3]; Log10 Concentration −4.0): −67%
Percent Growth ([3]; Log10 Concentration −5.0): −100%
Percent Growth ([3]; Log10 Concentration −6.0): 101%
GI50 [4]: 1060 nM
TGI [4]: 2.24E−06
Percent Growth ([4]; Log10 Concentration −5.0): −100%
Percent Growth ([4]; Log10 Concentration −7.0): 63%
Percent Growth ([4]; Log10 Concentration −8.0): 55%
GI50 (KM12 (Colon Cancer)): 1590 nM
TGI (KM12 (Colon Cancer)): 2.97E−06
Percent Growth (KM12 (Colon Cancer); Log10 Concentration −4.0): −43%
Percent Growth (KM12 (Colon Cancer); Log10 Concentration −5.0): −98%
Percent Growth (KM12 (Colon Cancer); Log10 Concentration −7.0): 91%
Percent Growth (KM12 (Colon Cancer); Log10 Concentration −8.0): 94%
GI50 (K-562 (Leukemia)): 326 nM
TGI (K-562 (Leukemia)): 1.52E−06
Percent Growth (K-562 (Leukemia); Log10 Concentration −4.0): −60%
Percent Growth (K-562 (Leukemia); Log10 Concentration −5.0): −58%
Percent Growth (K-562 (Leukemia); Log10 Concentration −6.0): 13%
Percent Growth (K-562 (Leukemia); Log10 Concentration −8.0): 94%
GI50 (HCT-116 (Colon Cancer)): 1290 nM
TGI (HCT-116 (Colon Cancer)): 2.55E−06
Percent Growth (HCT-116 (Colon Cancer); Log10 Concentration −4.0): −49%
Percent Growth (HCT-116 (Colon Cancer); Log10 Concentration −5.0): −100%
Percent Growth (HCT-116 (Colon Cancer); Log10 Concentration −6.0): 68%
Percent Growth (HCT-116 (Colon Cancer); Log10 Concentration −8.0): 82%
GI50 (MOLT-4 (Leukemia)): 233 nM
TGI (MOLT-4 (Leukemia)): 1.98E−06
Percent Growth (MOLT-4 (Leukemia); Log10 Concentration −6.0): 23%
Percent Growth (MOLT-4 (Leukemia); Log10 Concentration −7.0): 66%
TGI [5]: 1.66E−06
Percent Growth ([5]; Log10 Concentration −4.0): −39%
Percent Growth ([5]; Log10 Concentration −5.0): −98%
Percent Growth ([5]; Log10 Concentration −6.0): 27%
Percent Growth ([5]; Log10 Concentration −7.0): 78%
Percent Growth ([5]; Log10 Concentration −8.0): 47%
GI50 [6]: 1640 nM
TGI [6]: 3.04E−06
Percent Growth ([6]; Log10 Concentration −4.0): −20%
Percent Growth ([6]; Log10 Concentration −5.0): −97%
Percent Growth ([6]; Log10 Concentration −6.0): 90%
Percent Growth ([6]; Log10 Concentration −7.0): 91%
Percent Growth ([6]; Log10 Concentration −8.0): 91%
